Results taken from US10342804B2, “Steroid compound for use in the treatment of hepatic encephalopathy” (Umecrine Cognition AB, priority 2014, dated 2019).
Like-named read-outs stand apart in the source and are kept apart here.

Tests used:
PCS rats [1] = experiment: Morris water maze memory test, PCS rats (Example 9); assay type: in vivo, rat
Experimental: (§1) Male Wistar rats (220-240 g) were anesthetized with isoflurane, and an end-to side porta-caval anastomosis was performed as described by Lee and Fisher (Surgery, 1961, 50, 668-672).
(§2) Rats that were subjected to the porta-caval anastomosis procedure are herein referred to as “PCS rats”.
3α-ethynyl-3β-hydroxyandrostan-17-one oxime in sesame oil was administered by subcutaneous injections in the back of the rats, once daily. Two different sets of experiments were performed in hyperammonemic rats. In the first set four groups of rats were used: 1) control rats injected with vehicle; 2) hyperammonemic rats injected with vehicle; 3) control rats injected with 20 mg/Kg of 3α-ethynyl-3β-hydroxyandrostan-17-one oxime and 4) hyperammonemic rats injected with 20 mg/Kg of 3α-ethynyl-3β-hydroxyandrostan-17-one oxime. […]
The test was carried out as described by Monfort et al. (European Journal of Neuroscience, 2007, 25, 2103-2111) using a circular pool (160 cm diameter, 40 cm height) arbitrarily divided into four quadrants. […] The time needed to find the hidden platform was recorded manually and used as a measure of learning of the task.
(§3) Spatial memory was assessed 24 hours later by removing the platform and measuring the time spent by the rat in the quadrant where the platform was.

hyperammonemic rats = experiment: Morris water maze memory test, hyperammonemic rats (Example 9); assay type: in vivo, rat
Experimental: Male Wistar rats (140-160 g) were made hyperammonemic by feeding them a diet containing ammonium acetate (30% by weight) (Felipo et al, European Journal of Biochemistry, 1988, 176, 567-571).
(§4) 3α-ethynyl-3β-hydroxyandrostan-17-one oxime in sesame oil was administered by subcutaneous injections in the back of the rats, once daily. Two different sets of experiments were performed in hyperammonemic rats. In the first set four groups of rats were used: 1) control rats injected with vehicle; 2) hyperammonemic rats injected with vehicle; 3) control rats injected with 20 mg/Kg of 3α-ethynyl-3β-hydroxyandrostan-17-one oxime and 4) hyperammonemic rats injected with 20 mg/Kg of 3α-ethynyl-3β-hydroxyandrostan-17-one oxime.
In the second set of experiments five groups of rats were used: 1) control rats injected with vehicle; 2) hyperammonemiac rats injected with vehicle and 3-5) hyperammonemic rats injected with 3, 10 or 20 mg/Kg of 3α-ethynyl-3β-hydroxyandrostan-17-one oxime. In each experiment 6-8 rats per group were used.
The test was carried out as described by Monfort et al. (European Journal of Neuroscience, 2007, 25, 2103-2111) using a circular pool (160 cm diameter, 40 cm height) arbitrarily divided into four quadrants. After pre-training, the rats were trained to learn the fixed location of the invisible platform over 3 days. Training involved placing the rat into the pool facing the wall in one of the three quadrants lacking the platform. A different starting point was randomly used on each trial. Training consisted of three swims per day. Each animal was allowed a maximum of 120 seconds to find the platform and was left for 20 seconds on the platform. […] The time needed to find the hidden platform was recorded manually and used as a measure of learning of the task.
as §3

[2] = Fraction unbound in brain homogenates by dialysis; assay type: in vitro ADME; conditions: rat, brain homogenate, read-out: Fraction unbound (Fub) in brain homogenates
Experimental: (§5) At the end of the treatment period plasma was collected from the tail vein, and after sacrifice by decapitation brains were collected and immediately frozen on dry ice. For analysis of 3α-ethynyl-3β-hydroxyandrostan-17-one oxime exposure, brain tissue was homogenized with a 1:4 ratio of tissue: PBS (pH 7.4) and then extracted with a 2-fold volume of methanol:acetonitrile (1:1), while plasma was protein-precipitated with a 3-fold volume with acetonitrile. Analyses were performed by Waters ACQUITY UPLC+Waters XEVO-TQS triple quadrupole mass spectrometer (Admescope Oy, Oulu, Finland). For calculations of the amount of free 3α-ethynyl-3β-hydroxyandrostan-17-one oxime exposure in the brain the fraction unbound (Fb) in brain homogenates were determined by dialysis, Fub in HA=[…] and Fub in PCS=1.43% (Admescope Oy, Oulu, Finland).

[3] = Exposure in plasma and brain tissue, PCS rats (Example 13); assay type: in vivo, rat; conditions: for Total concentration in plasma: at the time for behavioral testing
Experimental: as §1, §2, §4
(§6) For the experiments using PCS rats, the following groups of rats were used: 1) Sham rats injected with vehicle; 2) PCS rats injected with vehicle; 3-4) PCS rats injected with 0.7 or 2.5 mg/Kg of 3α-ethynyl-3β-hydroxyandrostan-17-one oxime. The number of rats used in each experiment is either shown in the corresponding Figure or given in the description of the corresponding Figure.
as §5

[4] = tested on: receptors, ion channels and enzymes, including all major classes of neurotransmitter receptors; experiment: Binding selectivity screen, 113 targets (Perkin Elmer customized screen); conditions: 10 μM, duplicate; neurotransmitter related receptors, steroid receptors, peptide receptors
Experimental: The binding of 3α-ethynyl-3β-hydroxyandrostan-17-one oxime was determined for receptors, ion channels and enzymes, including all major classes of neurotransmitter receptors. In total 113 targets were tested in duplicate with 3α-ethynyl-3β-hydroxyandrostan-17-one oxime at 10 μM (Perkin Elmer, Customized screen). Binding activity was defined as greater than or equal to 50% inhibition of ligand binding.

PCS rats [5] = experiment: Circadian rhythms of spontaneous locomotor activity (actimeter), PCS rats (Example 11); assay type: in vivo, rat
Experimental: as §1, §2, §4, §6
Motor activity was measured using an actimeter (Med Associates, S t. Albans, Vt.). Rats were placed individually in an open-field activity chamber (43×43×31 cm), and motor activity was recorded continuously for 14 days in conditions of light-dark (L:D), 12 h:12 h. Data were recorded at intervals of 5 minutes. Motor activity was detected by arrays of infrared motion detectors, placed in three directions, x, y and z. One ambulatory count is recorded by the apparatus when the rat interrupts three consecutive infrared detectors, in x or y position. A vertical count is recorded when rat interrupts infrared detectors in z position. The software allows measuring different parameter of motor activity, such as ambulatory counts or vertical counts (Ahabrach et al. Journal of Neuroscience Research, 2010, 88, 1605-14).

blood ammonia = experiment: Ammonia determination in blood (Example 5); assay type: in vivo, rat
Text: The study was divided into two series with animals (male Wistar rats), each series included the following groups; Controls treated with vehicle (CV, n=8 per series), Controls treated with 3α-ethynyl-3β-hydroxyandrostan-17-one oxime (C+GAM, n=8 per series), hyperammonemic rats treated with vehicle (HAV, n=8 per series), hyperammonemic rats treated with 3α-ethynyl-3β-hydroxyandrostan-17-one oxime (HA+GAM, n=8 per series). The once daily treatment with 3α-ethynyl-3β-hydroxyandrostan-17-one oxime at 20 mg/kg or with vehicle was performed with subcutaneous injections of 1 ml/kg around 9 a.m. Treatment started one week after starting with the ammonium containing diet and continued for the whole experimental period.
Blood was obtained from the tail of the rats (from Example 2) in the end of second week of ammonia treatment and first week of 3α-ethynyl-3β-hydroxyandrostan-17-one oxime treatment and also from the neck during the animal sacrifice. To obtain the plasma it was added EDTA […] and centrifuged at 1500 r.p.m during 5 minutes.
Ammonia concentration in blood samples was measured using the Pocket chem BA (Woodley Equipment Company Ltd, United Kingdom), an ammonia analyzer. The device enables immediate testing and delivers results in 3 minutes and 20 s. It also eliminates the need for pre-processes such as centrifugal separation.

C#C[C@]1(O)CC[C@@]2(C)C(CC[C@@H]3[C@@H]2CC[C@]2(C)/C(=N\O)CC[C@@H]32)C1 (stereo partly drawn) [3α-ethynyl-3β-hydroxyandrostan-17-one oxime]
Percentage of time spent in the correct quadrant, Morris water maze memory test (PCS rats [1]; 0.7 mg/kg): 34±4% | Percentage of time spent in the correct quadrant, Morris water maze memory test (PCS rats [1]; 2.5 mg/kg): 39±3% | Percentage of time spent in the correct quadrant, Morris water maze memory test (hyperammonemic rats; 3 mg/kg): 41±4% | Percentage of time spent in the correct quadrant, Morris water maze memory test (hyperammonemic rats; 10 mg/kg): 42±5% | Percentage of time spent in the correct quadrant, Morris water maze memory test (hyperammonemic rats; 20 mg/kg): 38±3% | fraction unbound ([2]; pH 7.4, HA rats): 0.007 | fraction unbound ([2]; pH 7.4, PCS rats): 0.0143 | Unbound concentration in the brain ([3]; 0.7 mg/kg/day s.c.): 6.18 ± 0.97 nmol/kg | Total concentration in plasma ([3]; 0.7 mg/kg/day s.c.): 0.48 ± 0.09 µM | Unbound concentration in the brain ([3]; 2.5 mg/kg/day s.c.): 17 ± 2 nmol/kg | Total concentration in plasma ([3]; 2.5 mg/kg/day s.c.): 1.64 ± 0.30 µM | Binding activity (greater than or equal to 50% inhibition of ligand binding) [4]: did not show binding activity | Motor activity (ambulatory counts) during the night (PCS rats [5]; 0.7 mg/kg): 2652±275 counts | Night/day ratio of ambulatory activity (PCS rats [5]; 0.7 mg/kg): 1.7±0.2 | Night/day ratio of vertical activity (PCS rats [5]; 0.7 mg/kg): 2.1±0.4 | Vertical activity during the day (PCS rats [5]; 0.7 mg/kg): 339±47 counts | Vertical activity during the night (PCS rats [5]; 0.7 mg/kg): 664±121 counts | Motor activity (ambulatory counts) during the night (PCS rats [5]; 2.5 mg/kg): 2235±170 counts | Night/day ratio of ambulatory activity (PCS rats [5]; 2.5 mg/kg): 1.6±0.3 | Night/day ratio of vertical activity (PCS rats [5]; 2.5 mg/kg): 1.9±0.6 | Vertical activity during the day (PCS rats [5]; 2.5 mg/kg): 424±44 counts | Vertical activity during the night (PCS rats [5]; 2.5 mg/kg): 695±185 counts | Blood ammonia levels (blood ammonia; control rats treated with 20 mg/kg s.c. once daily): 55 ± 7 µM | Blood ammonia levels (blood ammonia; hyperammonemic rats treated with 20 mg/kg s.c. once daily): 139 ± 15 µM
